± gives the expanded uncertainty stated by the source.
Columns and labels:
[1] = molar heat capacity at constant pressure; xn = mol fraction of the nth substance listed; conditions: 101 kPa, Liquid, Small sample (50 mg) DSC
[2] = xn = mol fraction of the nth substance listed; conditions: 101 kPa, Liquid, Vibrating tube method

CCCCn1cc[n+](C)c1.F[B-](F)(F)F [1-butyl-3-methylimidazolium tetrafluoroborate] + CCO
Conditions | mass density, [2] [kg/m3] | molar heat capacity at constant pressure, [1] [J/K/mol]
293.15 K, x1 = 0.0987 | 903 ± 0.3 | 150.5 ± 2.3
293.15 K, x1 = 0.1923 | 976.5 ± 0.2 | 174.4 ± 2.7
293.15 K, x1 = 0.3004 | 1037.8 ± 0.2 | 197.8 ± 3.1
293.15 K, x1 = 0.3885 | 1075.8 ± 0.2 | 219.8 ± 3.4
293.15 K, x1 = 0.4865 | 1108.8 ± 0.2 | 240.1 ± 3.7
293.15 K, x1 = 0.573 | 1132.8 ± 0.2 | 258.3 ± 4
293.15 K, x1 = 0.6738 | 1155.4 ± 0.2 | 281.8 ± 4.4
293.15 K, x1 = 0.7531 | 1170.9 ± 0.2 | 300.8 ± 4.7
293.15 K, x1 = 0.8821 | 1191.8 ± 0.2 | 330.9 ± 5.1
298.15 K, x1 = 0.0987 | 898.9 ± 0.3 | 150 ± 2.3
298.15 K, x1 = 0.1923 | 972.5 ± 0.3 | 173.6 ± 2.7
298.15 K, x1 = 0.3004 | 1033.9 ± 0.2 | 198.8 ± 3.1
298.15 K, x1 = 0.3885 | 1071.9 ± 0.2 | 219.6 ± 3.4
298.15 K, x1 = 0.4865 | 1105 ± 0.2 | 241.2 ± 3.7
298.15 K, x1 = 0.573 | 1129.1 ± 0.2 | 259.7 ± 4
298.15 K, x1 = 0.6738 | 1151.7 ± 0.2 | 283.5 ± 4.4
298.15 K, x1 = 0.7531 | 1167.2 ± 0.2 | 302.6 ± 4.7
298.15 K, x1 = 0.8821 | 1188.2 ± 0.2 | 333 ± 5.2
303.15 K, x1 = 0.0987 | 894.8 ± 0.3 | 149.9 ± 2.3
303.15 K, x1 = 0.1923 | 968.5 ± 0.3 | 173.5 ± 2.7
303.15 K, x1 = 0.3004 | 1030 ± 0.2 | 199.7 ± 3.1
303.15 K, x1 = 0.3885 | 1068 ± 0.2 | 219.9 ± 3.4
303.15 K, x1 = 0.4865 | 1101.2 ± 0.2 | 242.3 ± 3.8
303.15 K, x1 = 0.573 | 1125.3 ± 0.2 | 261.1 ± 4
303.15 K, x1 = 0.6738 | 1148 ± 0.2 | 285.2 ± 4.4
303.15 K, x1 = 0.7531 | 1163.5 ± 0.2 | 304.3 ± 4.7
303.15 K, x1 = 0.8821 | 1184.6 ± 0.2 | 335.1 ± 5.2
308.15 K, x1 = 0.0987 | 890.8 ± 0.3 | 150.3 ± 2.3
308.15 K, x1 = 0.1923 | 964.6 ± 0.3 | 174.2 ± 2.7
308.15 K, x1 = 0.3004 | 1026.1 ± 0.2 | 200.6 ± 3.1
308.15 K, x1 = 0.3885 | 1064.2 ± 0.2 | 220.6 ± 3.4
308.15 K, x1 = 0.4865 | 1097.4 ± 0.2 | 243.4 ± 3.8
308.15 K, x1 = 0.573 | 1121.6 ± 0.2 | 262.4 ± 4.1
308.15 K, x1 = 0.6738 | 1144.4 ± 0.2 | 286.9 ± 4.4
308.15 K, x1 = 0.7531 | 1159.9 ± 0.2 | 306.2 ± 4.7
308.15 K, x1 = 0.8821 | 1181 ± 0.2 | 337.2 ± 5.2
313.15 K, x1 = 0.0987 | 886.6 ± 0.3 | 151.1 ± 2.3
313.15 K, x1 = 0.1923 | 960.5 ± 0.3 | 175.6 ± 2.7
313.15 K, x1 = 0.3004 | 1022.2 ± 0.2 | 201.4 ± 3.1
313.15 K, x1 = 0.3885 | 1060.4 ± 0.2 | 221.7 ± 3.4
313.15 K, x1 = 0.4865 | 1093.6 ± 0.2 | 244.4 ± 3.8
313.15 K, x1 = 0.573 | 1117.9 ± 0.2 | 263.7 ± 4.1
313.15 K, x1 = 0.6738 | 1140.7 ± 0.2 | 288.5 ± 4.5
313.15 K, x1 = 0.7531 | 1156.3 ± 0.2 | 308 ± 4.8
313.15 K, x1 = 0.8821 | 1177.4 ± 0.2 | 339.3 ± 5.3
318.15 K, x1 = 0.0987 | 882.4 ± 0.3 | 152.4 ± 2.4
318.15 K, x1 = 0.1923 | 956.5 ± 0.3 | 177.8 ± 2.8
318.15 K, x1 = 0.3004 | 1018.2 ± 0.2 | 202.3 ± 3.1
318.15 K, x1 = 0.3885 | 1056.5 ± 0.2 | 223.3 ± 3.5
318.15 K, x1 = 0.4865 | 1089.8 ± 0.2 | 245.6 ± 3.8
318.15 K, x1 = 0.573 | 1114.2 ± 0.2 | 265.1 ± 4.1
318.15 K, x1 = 0.6738 | 1137.1 ± 0.2 | 290.1 ± 4.5
318.15 K, x1 = 0.7531 | 1152.7 ± 0.2 | 309.9 ± 4.8
318.15 K, x1 = 0.8821 | 1173.8 ± 0.2 | 341.4 ± 5.3

CCCCn1cc[n+](C)c1.COS(=O)(=O)[O-] [1-butyl-3-methylimidazolium methyl sulfate] + CCO
Conditions | mass density, [2] [kg/m3] | molar heat capacity at constant pressure, [1] [J/K/mol]
293.15 K, x1 = 0.0511 | 860.9 ± 0.3 | 128.1 ± 2
293.15 K, x1 = 0.1025 | 916.2 ± 0.3 | 143.3 ± 2.2
293.15 K, x1 = 0.199 | – | 171.7 ± 2.7
293.15 K, x1 = 0.2016 | 995 ± 0.2 | –
293.15 K, x1 = 0.3106 | 1055 ± 0.2 | 204.1 ± 3.2
293.15 K, x1 = 0.4058 | 1093.4 ± 0.2 | 232.2 ± 3.6
293.15 K, x1 = 0.5057 | 1124.7 ± 0.2 | 262.1 ± 4.1
293.15 K, x1 = 0.6005 | 1147.9 ± 0.2 | 290.9 ± 4.5
293.15 K, x1 = 0.69 | 1166.6 ± 0.2 | 318.2 ± 4.9
293.15 K, x1 = 0.7834 | 1182.5 ± 0.2 | 346.9 ± 5.4
293.15 K, x1 = 0.8815 | 1196.6 ± 0.2 | 377.1 ± 5.8
293.15 K, x1 = 0.9368 | 1203.5 ± 0.2 | 394 ± 6.1
298.15 K, x1 = 0.0511 | 856.7 ± 0.3 | 130 ± 2
298.15 K, x1 = 0.1025 | 912.2 ± 0.3 | 145.1 ± 2.2
298.15 K, x1 = 0.199 | – | 173.4 ± 2.7
298.15 K, x1 = 0.2016 | 991.2 ± 0.2 | –
298.15 K, x1 = 0.3106 | 1051.3 ± 0.2 | 205.8 ± 3.2
298.15 K, x1 = 0.4058 | 1089.8 ± 0.2 | 234 ± 3.6
298.15 K, x1 = 0.5057 | 1121.2 ± 0.2 | 263.9 ± 4.1
298.15 K, x1 = 0.6005 | 1144.5 ± 0.2 | 292.8 ± 4.5
298.15 K, x1 = 0.69 | 1163.1 ± 0.2 | 320.3 ± 5
298.15 K, x1 = 0.7834 | 1179.1 ± 0.2 | 349.1 ± 5.4
298.15 K, x1 = 0.8815 | 1193.2 ± 0.2 | 379.5 ± 5.9
298.15 K, x1 = 0.9368 | 1200.2 ± 0.2 | 396.5 ± 6.1
303.15 K, x1 = 0.0511 | 852.6 ± 0.3 | 131.8 ± 2
303.15 K, x1 = 0.1025 | 908.2 ± 0.3 | 146.7 ± 2.3
303.15 K, x1 = 0.199 | – | 174.9 ± 2.7
303.15 K, x1 = 0.2016 | 987.4 ± 0.2 | –
303.15 K, x1 = 0.3106 | 1047.6 ± 0.2 | 207.2 ± 3.2
303.15 K, x1 = 0.4058 | 1086.3 ± 0.2 | 235.6 ± 3.7
303.15 K, x1 = 0.5057 | 1117.7 ± 0.2 | 265.6 ± 4.1
303.15 K, x1 = 0.6005 | 1141 ± 0.2 | 294.7 ± 4.6
303.15 K, x1 = 0.69 | 1159.7 ± 0.2 | 322.3 ± 5
303.15 K, x1 = 0.7834 | 1175.7 ± 0.2 | 351.2 ± 5.4
303.15 K, x1 = 0.8815 | 1189.9 ± 0.2 | 381.7 ± 5.9
303.15 K, x1 = 0.9368 | 1196.9 ± 0.2 | 398.9 ± 6.2
308.15 K, x1 = 0.0511 | 848.5 ± 0.3 | 133.5 ± 2.1
308.15 K, x1 = 0.1025 | 904.3 ± 0.3 | 148.3 ± 2.3
308.15 K, x1 = 0.199 | – | 176.4 ± 2.7
308.15 K, x1 = 0.2016 | 983.6 ± 0.2 | –
308.15 K, x1 = 0.3106 | 1043.9 ± 0.2 | 208.6 ± 3.2
308.15 K, x1 = 0.4058 | 1082.7 ± 0.2 | 237.1 ± 3.7
308.15 K, x1 = 0.5057 | 1114.2 ± 0.2 | 267.3 ± 4.1
308.15 K, x1 = 0.6005 | 1137.6 ± 0.2 | 296.5 ± 4.6
308.15 K, x1 = 0.69 | 1156.3 ± 0.2 | 324.2 ± 5
308.15 K, x1 = 0.7834 | 1172.3 ± 0.2 | 353.3 ± 5.5
308.15 K, x1 = 0.8815 | 1186.6 ± 0.2 | 383.9 ± 5.9
308.15 K, x1 = 0.9368 | 1193.6 ± 0.2 | 401.2 ± 6.2
313.15 K, x1 = 0.0511 | 844.4 ± 0.3 | 135 ± 2.1
313.15 K, x1 = 0.1025 | 900.2 ± 0.3 | 149.7 ± 2.3
313.15 K, x1 = 0.199 | – | 177.6 ± 2.8
313.15 K, x1 = 0.2016 | 979.8 ± 0.3 | –
313.15 K, x1 = 0.3106 | 1040.3 ± 0.2 | 209.9 ± 3.3
313.15 K, x1 = 0.4058 | 1079.1 ± 0.2 | 238.5 ± 3.7
313.15 K, x1 = 0.5057 | 1110.7 ± 0.2 | 268.9 ± 4.2
313.15 K, x1 = 0.6005 | 1134.1 ± 0.2 | 298.2 ± 4.6
313.15 K, x1 = 0.69 | 1152.9 ± 0.2 | 326.1 ± 5.1
313.15 K, x1 = 0.7834 | 1169 ± 0.2 | 355.3 ± 5.5
313.15 K, x1 = 0.8815 | 1183.3 ± 0.2 | 386 ± 6
313.15 K, x1 = 0.9368 | 1190.3 ± 0.2 | 403.3 ± 6.2
318.15 K, x1 = 0.0511 | 840.1 ± 0.3 | 136.6 ± 2.1
318.15 K, x1 = 0.1025 | 896.1 ± 0.3 | 151 ± 2.3
318.15 K, x1 = 0.199 | – | 178.8 ± 2.8
318.15 K, x1 = 0.2016 | 975.9 ± 0.3 | –
318.15 K, x1 = 0.3106 | 1036.6 ± 0.2 | 211.2 ± 3.3
318.15 K, x1 = 0.4058 | 1075.5 ± 0.2 | 239.8 ± 3.7
318.15 K, x1 = 0.5057 | 1107.2 ± 0.2 | 270.5 ± 4.2
318.15 K, x1 = 0.6005 | 1130.7 ± 0.2 | 299.9 ± 4.6
318.15 K, x1 = 0.69 | 1149.5 ± 0.2 | 327.9 ± 5.1
318.15 K, x1 = 0.7834 | 1165.6 ± 0.2 | 357.3 ± 5.5
318.15 K, x1 = 0.8815 | 1180 ± 0.2 | 388 ± 6
318.15 K, x1 = 0.9368 | 1187 ± 0.2 | 405.4 ± 6.3
